Source: ChEMBL document CHEMBL1649508, “Emergence of quinolone-resistant Bordetella pertussis in Japan” (2009)
Values after ≈ are worked out from the molar mass of the structure shown.

Tests used:
Type in all cases: functional
[1] = system: Bordetella pertussis; assay: Antibacterial activity against quinolone-susceptible Bordetella pertussis BP106 by Etest method
[2] = system: Bordetella pertussis; assay: Antibacterial activity against quinolone-susceptible Bordetella pertussis BP113 by Etest method
[3] = system: Bordetella pertussis; assay: Antibacterial activity against quinolone-susceptible Bordetella pertussis CCUG 30837 by Etest method
[4] = system: Bordetella pertussis; assay: Antibacterial activity against quinolone-susceptible Bordetella pertussis BP101 by Etest method
[5] = system: Bordetella pertussis; assay: Antibacterial activity against quinolone-susceptible Bordetella pertussis BP112 by Etest method
[6] = system: Bordetella pertussis; assay: Antibacterial activity against […] Bordetella pertussis BP122 by Etest method
[7] = system: Bordetella pertussis; assay: Antibacterial activity against […] Bordetella pertussis BP117 by Etest method
[8] = system: Bordetella pertussis; assay: Antibacterial activity against quinolone-susceptible Bordetella pertussis BP109 by Etest method
[9] = system: Bordetella pertussis; assay: Antibacterial activity against […] Bordetella pertussis BP118 by Etest method
[10] = system: Bordetella pertussis; assay: Antibacterial activity against quinolone-susceptible Bordetella pertussis BP128 by Etest method
[11] = system: Bordetella pertussis; assay: Antibacterial activity against quinolone-susceptible Bordetella pertussis BP115 by Etest method
[12] = system: Bordetella pertussis; assay: Antibacterial activity against […] Bordetella pertussis BP58 by Etest method
[13] = system: Bordetella pertussis; assay: Antibacterial activity against […] Bordetella pertussis BP121 by Etest method
[14] = system: Bordetella pertussis; assay: Antibacterial activity against […] Bordetella pertussis BP99 by Etest method
[15] = system: Bordetella pertussis; assay: Antibacterial activity against quinolone-susceptible Bordetella pertussis BP111 by Etest method
[16] = system: Bordetella pertussis; assay: Antibacterial activity against […] Bordetella pertussis BP122 by Etest method in presence of efflux pump inhibitor phenyl-arginine-beta-naphthylamide
[17] = system: Bordetella pertussis; assay: Antibacterial activity against […] Bordetella pertussis BP117 by Etest method in presence of efflux pump inhibitor phenyl-arginine-beta-naphthylamide
[18] = system: Bordetella pertussis; assay: Antibacterial activity against quinolone-susceptible Bordetella pertussis CCUG 30837 by Etest method in presence of efflux pump inhibitor phenyl-arginine-beta-naphthylamide
[19] = system: Bordetella pertussis; assay: Antibacterial activity against […] Bordetella pertussis BP99 by Etest method in presence of efflux pump inhibitor phenyl-arginine-beta-naphthylamide
[20] = system: Bordetella pertussis; assay: Antibacterial activity against […] Bordetella pertussis BP58 by Etest method in presence of efflux pump inhibitor phenyl-arginine-beta-naphthylamide
[21] = system: Bordetella pertussis; assay: Antibacterial activity against […] Bordetella pertussis BP118 by Etest method in presence of efflux pump inhibitor phenyl-arginine-beta-naphthylamide
[22] = system: Bordetella pertussis; assay: Antibacterial activity against quinolone-susceptible Bordetella pertussis BP113 by Etest method in presence of efflux pump inhibitor phenyl-arginine-beta-naphthylamide
[23] = system: Bordetella pertussis; assay: Antibacterial activity against […] Bordetella pertussis BP121 by Etest method in presence of efflux pump inhibitor phenyl-arginine-beta-naphthylamide

Compound | MIC [1] | MIC [2] | MIC [3] | MIC [4] | MIC [5] | MIC [6] | MIC [7] | MIC [8] | MIC [9] | MIC [10] | MIC [11] | MIC [12] | MIC [13] | MIC [14] | MIC [15] | other results
O=C(N[C@H](CO)[C@H](O)c1ccc([N+](=O)[O-])cc1)C(Cl)Cl [CHLORAMPHENICOL] | 0.25 µg/mL (≈ 0.774 µM) | 0.5 µg/mL (≈ 1.55 µM) | 0.5 µg/mL (≈ 1.55 µM) | 0.25 µg/mL (≈ 0.774 µM) | 0.25 µg/mL (≈ 0.774 µM) | 0.25 µg/mL (≈ 0.774 µM) | 0.25 µg/mL (≈ 0.774 µM) | 0.125 µg/mL (≈ 0.387 µM) | 0.5 µg/mL (≈ 1.55 µM) | 0.25 µg/mL (≈ 0.774 µM) | 0.5 µg/mL (≈ 1.55 µM) | 0.5 µg/mL (≈ 1.55 µM) | 0.25 µg/mL (≈ 0.774 µM) | 0.25 µg/mL (≈ 0.774 µM) | 0.25 µg/mL (≈ 0.774 µM) | –
O=C(O)c1cn(C2CC2)c2cc(N3CCNCC3)c(F)cc2c1=O [CIPROFLOXACIN] | 0.008 µg/mL (≈ 0.0241 µM) | 0.008 µg/mL (≈ 0.0241 µM) | 0.032 µg/mL (≈ 0.0966 µM) | 0.016 µg/mL (≈ 0.0483 µM) | 0.008 µg/mL (≈ 0.0241 µM) | 0.125 µg/mL (≈ 0.377 µM) | 0.125 µg/mL (≈ 0.377 µM) | 0.008 µg/mL (≈ 0.0241 µM) | 0.125 µg/mL (≈ 0.377 µM) | 0.016 µg/mL (≈ 0.0483 µM) | 0.016 µg/mL (≈ 0.0483 µM) | 0.125 µg/mL (≈ 0.377 µM) | 0.125 µg/mL (≈ 0.377 µM) | 0.125 µg/mL (≈ 0.377 µM) | 0.016 µg/mL (≈ 0.0483 µM) | –
CCn1cc(C(=O)O)c(=O)c2ccc(C)nc21 [NALIDIXIC ACID] | 1 µg/mL (≈ 4.31 µM) | 2 µg/mL (≈ 8.61 µM) | 2 µg/mL (≈ 8.61 µM) | 2 µg/mL (≈ 8.61 µM) | 1 µg/mL (≈ 4.31 µM) | > 256 µg/mL | > 256 µg/mL | 2 µg/mL (≈ 8.61 µM) | > 256 µg/mL | 1 µg/mL (≈ 4.31 µM) | 1 µg/mL (≈ 4.31 µM) | > 256 µg/mL | > 256 µg/mL | > 256 µg/mL | 2 µg/mL (≈ 8.61 µM) | MIC [16]: 32 µg/mL; MIC [17]: 64 µg/mL; MIC [18]: 0.25 µg/mL; MIC [19]: 32 µg/mL; MIC [20]: 64 µg/mL; MIC [21]: 64 µg/mL; MIC [22]: 0.25 µg/mL; MIC [23]: 32 µg/mL
CCn1cc(C(=O)O)c(=O)c2cc(F)c(N3CCNCC3)cc21 [NORFLOXACIN] | 0.064 µg/mL (≈ 0.2 µM) | 0.064 µg/mL (≈ 0.2 µM) | 0.125 µg/mL (≈ 0.391 µM) | 0.032 µg/mL (≈ 0.1 µM) | 0.064 µg/mL (≈ 0.2 µM) | 1 µg/mL (≈ 3.13 µM) | 0.5 µg/mL (≈ 1.57 µM) | 0.064 µg/mL (≈ 0.2 µM) | 0.5 µg/mL (≈ 1.57 µM) | 0.064 µg/mL (≈ 0.2 µM) | 0.064 µg/mL (≈ 0.2 µM) | 1 µg/mL (≈ 3.13 µM) | 1 µg/mL (≈ 3.13 µM) | 1 µg/mL (≈ 3.13 µM) | 0.064 µg/mL (≈ 0.2 µM) | –

Now from value to compound, other results behind:

MIC [1] | MIC [2] | MIC [3] | MIC [4] | MIC [5] | MIC [6] | MIC [7] | MIC [8] | MIC [9] | MIC [10] | MIC [11] | MIC [12] | MIC [13] | MIC [14] | MIC [15] | Compound | other results
0.004 µg/mL (≈ 0.0107 µM) | 0.004 µg/mL (≈ 0.0107 µM) | 0.008 µg/mL (≈ 0.0213 µM) | 0.008 µg/mL (≈ 0.0213 µM) | 0.004 µg/mL (≈ 0.0107 µM) | 0.032 µg/mL (≈ 0.0852 µM) | 0.032 µg/mL (≈ 0.0852 µM) | 0.004 µg/mL (≈ 0.0107 µM) | 0.032 µg/mL (≈ 0.0852 µM) | 0.008 µg/mL (≈ 0.0213 µM) | 0.008 µg/mL (≈ 0.0213 µM) | 0.032 µg/mL (≈ 0.0852 µM) | 0.032 µg/mL (≈ 0.0852 µM) | 0.032 µg/mL (≈ 0.0852 µM) | 0.008 µg/mL (≈ 0.0213 µM) | COc1c(N2CCNC(C)C2)c(F)cc2c(=O)c(C(=O)O)cn(C3CC3)c12 (stereo not drawn) [GATIFLOXACIN] | –
0.008 µg/mL | 0.008 µg/mL | 0.016 µg/mL | 0.016 µg/mL | 0.008 µg/mL | 0.064 µg/mL | 0.064 µg/mL | 0.004 µg/mL | 0.064 µg/mL | 0.016 µg/mL | 0.008 µg/mL | 0.064 µg/mL | 0.064 µg/mL | 0.064 µg/mL | 0.008 µg/mL | C[C@H]1COc2c(N3CCN(C)CC3)c(F)cc3c(=O)c(C(=O)O)cn1c23.C[C@H]1COc2c(N3CCN(C)CC3)c(F)cc3c(=O)c(C(=O)O)cn1c23.O [LEVOFLOXACIN] | –
0.004 µg/mL (≈ 0.0102 µM) | 0.004 µg/mL (≈ 0.0102 µM) | 0.016 µg/mL (≈ 0.0408 µM) | 0.008 µg/mL (≈ 0.0204 µM) | 0.004 µg/mL (≈ 0.0102 µM) | 0.064 µg/mL (≈ 0.163 µM) | 0.064 µg/mL (≈ 0.163 µM) | 0.004 µg/mL (≈ 0.0102 µM) | 0.064 µg/mL (≈ 0.163 µM) | 0.008 µg/mL (≈ 0.0204 µM) | 0.004 µg/mL (≈ 0.0102 µM) | 0.125 µg/mL (≈ 0.319 µM) | 0.064 µg/mL (≈ 0.163 µM) | 0.032 µg/mL (≈ 0.0815 µM) | 0.008 µg/mL (≈ 0.0204 µM) | C[C@@H]1CN(c2c(F)c(N)c3c(=O)c(C(=O)O)cn(C4CC4)c3c2F)C[C@H](C)N1 [SPARFLOXACIN] | –
